Molecules are shown by their SMILES. pIC50: −log10 of the molar value. Non-standard residues stand in square brackets, D forms with d. Residues, ends and D or L forms follow the SMILES beside them. Phe(4-(5-CO2H-2-pyrimidyl)) = N[C@@H](Cc1ccc(-c2ncc(C(=O)O)cn2)cc1)C(=O)O; Phe(4-(4-Ac-piperazinyl)) = CC(=O)N1CCN(c2ccc(C[C@H](N)C(=O)O)cc2)CC1; dPro(4R-(4-pyridylmethyl)) = O=C(O)[C@H]1C[C@@H](Cc2ccncc2)CN1; Trp(βS-Me,4-F) = C[C@@H](c1c[nH]c2cccc(F)c12)[C@H](N)C(=O)O; Bip(4'-COOH) = N[C@@H](Cc1ccc(-c2ccc(C(=O)O)cc2)cc1)C(=O)O; Ala(1-bicyclo(1.1.1)pentyl) = N[C@@H](CC12CC(C1)C2)C(=O)O; dPro(4R-Bzl(4-F)) = O=C(O)[C@H]1C[C@@H](Cc2ccc(F)cc2)CN1; Ala(pyrimidin-5-yl) = N[C@@H](Cc1cncnc1)C(=O)O; Phe(4-COOH) = N[C@@H](Cc1ccc(C(=O)O)cc1)C(=O)O; Pro(cis-4-F) = O=C(O)[C@@H]1C[C@H](F)CN1; Ala(4-THP) = N[C@@H](CC1CCOCC1)C(=O)O; cisHyp = O=C(O)[C@@H]1C[C@H](O)CN1; 4Pal = N[C@@H](Cc1ccncc1)C(=O)O; αMeD = C[C@](N)(CC(=O)O)C(=O)O; d(αMeS) = C[C@@](N)(CO)C(=O)O; Dab = NCC[C@H](N)C(=O)O; Aib = CC(C)(N)C(=O)O

The target in this test is T1, IL-1β (Homo sapiens, UniProt P01584).
T1 construct: purchased BioLegend 579404
T1 sequence (P01584 117-269): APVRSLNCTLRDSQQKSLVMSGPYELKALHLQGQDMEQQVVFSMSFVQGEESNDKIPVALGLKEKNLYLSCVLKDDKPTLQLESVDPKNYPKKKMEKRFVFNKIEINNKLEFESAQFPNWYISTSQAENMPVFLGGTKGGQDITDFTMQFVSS
The test is described as follows: IL-6 assay in MRC5 cells: inhibition of IL-1β induced IL-6 secretion (AlphaLISA). The format is cell-based. The following applies: inhibition of IL-1β induced IL-6 secretion in MRC5 cells; read-out: MRC5 IC50. The procedure, abridged:
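Compound was pre-incubated 1 h at ambient temperature with recombinant human IL-1β at 2λ EC80 before adding human lung fibroblast MRC5 cells (3000/well) in EMEM with 0.025% BSA. After overnight culture at 37 °C, 5% CO2, secreted IL-6 in conditioned medium was measured by AlphaLISA; IC50 from 4-parameter logistic fits.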
On the technique in general: In Alpha technology, singlet oxygen from a donor bead excites a nearby acceptor bead.
By pIC50 is commonly meant −log10 of the IC50, conventionally taken in molar units. For `C[C@@H](c1c[nH]c2cccc(F)c12)[C@@H]1NC(=O)[C@@H]2C[C@H](O)CN2C(=O)CNC(=O)[C@H](Cc2ccc(C(=O)O)cc2)NC(=O)[C@H](CC23CC(C2)C3)NC(=O)[C@H](Cc2ccc(-c3ccc(C(=O)O)cc3)cc2)NC(=O)[C@H]2C[C@@H](Cc3ccncc3)CN2C(=O)CNC(=O)[C@H](CCN)NC(=O)[C@H](CCC(N)=O)NC(=O)[C@H](CC2CCOCC2)NC(=O)[C@](C)(CC(=O)O)NC(=O)[C@H](Cc2c[nH]c3ccccc23)NC(=O)[C@H](CO)NC(=O)C(C)(C)NC1=O` [Example 191] (cyclo([Bip(4'-COOH)][Ala(1-bicyclo(1.1.1)pentyl)][Phe(4-COOH)]G[cisHyp][Trp(βS-Me,4-F)][Aib]SW[αMeD][Ala(4-THP)]Q[Dab]G[dPro(4R-(4-pyridylmethyl))])), the pIC50 was 10.68.

As for `C[C@@H](c1c[nH]c2cccc(F)c12)[C@@H]1NC(=O)[C@@H]2C[C@H](O)CN2C(=O)CNC(=O)[C@H](Cc2ccc(C(=O)O)cc2)NC(=O)[C@H](CC23CC(C2)C3)NC(=O)[C@H](Cc2ccc(-c3ccc(C(=O)O)cc3)cc2)NC(=O)[C@H]2C[C@@H](Cc3ccncc3)CN2C(=O)CNC(=O)[C@H](CCN)NC(=O)[C@H](CCC(N)=O)NC(=O)[C@H](CC2CCOCC2)NC(=O)[C@@](C)(CO)NC(=O)[C@H](Cc2c[nH]c3ccccc23)NC(=O)[C@H](CO)NC(=O)C(C)(C)NC1=O` [Example 192] (cyclo([Bip(4'-COOH)][Ala(1-bicyclo(1.1.1)pentyl)][Phe(4-COOH)]G[cisHyp][Trp(βS-Me,4-F)][Aib]SW[d(αMeS)][Ala(4-THP)]Q[Dab]G[dPro(4R-(4-pyridylmethyl))])), the pIC50 was 10.68.

As for `C[C@@H](c1c[nH]c2cccc(F)c12)[C@@H]1NC(=O)[C@@H]2C[C@H](F)CN2C(=O)CNC(=O)[C@H](Cc2ccc(C(=O)O)cc2)NC(=O)[C@H](CC23CC(C2)C3)NC(=O)[C@H](Cc2ccc(-c3ccc(C(=O)O)cc3)cc2)NC(=O)[C@H]2C[C@@H](Cc3ccncc3)CN2C(=O)CNC(=O)[C@H](CCN)NC(=O)[C@H](CCC(N)=O)NC(=O)[C@H](CC2CCOCC2)NC(=O)[C@](C)(CC(=O)O)NC(=O)[C@H](Cc2c[nH]c3ccccc23)NC(=O)[C@H](CO)NC(=O)C(C)(C)NC1=O` [Example 193] (cyclo([Bip(4'-COOH)][Ala(1-bicyclo(1.1.1)pentyl)][Phe(4-COOH)]G[Pro(cis-4-F)][Trp(βS-Me,4-F)][Aib]SW[αMeD][Ala(4-THP)]Q[Dab]G[dPro(4R-(4-pyridylmethyl))])), the pIC50 is 10.96.

`C[C@@H](c1c[nH]c2cccc(F)c12)[C@@H]1NC(=O)[C@@H]2C[C@H](O)CN2C(=O)CNC(=O)[C@H](Cc2ccc(C(=O)O)cc2)NC(=O)[C@H](Cc2ccncc2)NC(=O)[C@H](Cc2ccc(-c3ccc(C(=O)O)cc3)cc2)NC(=O)[C@H]2C[C@@H](Cc3ccncc3)CN2C(=O)CNC(=O)[C@H](CCN)NC(=O)[C@H](CCC(N)=O)NC(=O)[C@H](Cc2cncnc2)NC(=O)C(C)(C)NC(=O)[C@H](Cc2c[nH]c3ccccc23)NC(=O)[C@H](CO)NC(=O)C(C)(C)NC1=O` [Example 194] (cyclo([Bip(4'-COOH)][4Pal][Phe(4-COOH)]G[cisHyp][Trp(βS-Me,4-F)][Aib]SW[Aib][Ala(pyrimidin-5-yl)]Q[Dab]G[dPro(4R-(4-pyridylmethyl))])): the pIC50 is 10.85.

Turning to `C[C@@H](c1c[nH]c2cccc(F)c12)[C@@H]1NC(=O)[C@@H]2C[C@H](O)CN2C(=O)CNC(=O)[C@H](Cc2ccc(C(=O)O)cc2)NC(=O)[C@H](Cc2ccncc2)NC(=O)[C@H](Cc2ccc(-c3ccc(C(=O)O)cc3)cc2)NC(=O)[C@H]2C[C@@H](Cc3ccncc3)CN2C(=O)CNC(=O)[C@H](CCN)NC(=O)[C@H](CCC(N)=O)NC(=O)[C@H](Cc2cncnc2)NC(=O)[C@@](C)(CO)NC(=O)[C@H](Cc2c[nH]c3ccccc23)NC(=O)[C@H](CO)NC(=O)C(C)(C)NC1=O` [Example 195] (cyclo([Bip(4'-COOH)][4Pal][Phe(4-COOH)]G[cisHyp][Trp(βS-Me,4-F)][Aib]SW[d(αMeS)][Ala(pyrimidin-5-yl)]Q[Dab]G[dPro(4R-(4-pyridylmethyl))])), the pIC50 was 10.89.

With `CC(=O)N1CCN(c2ccc(C[C@@H]3NC(=O)[C@H]4C[C@@H](Cc5ccc(F)cc5)CN4C(=O)CNC(=O)[C@H](CCN)NC(=O)[C@H](CCC(N)=O)NC(=O)[C@H](Cc4cncnc4)NC(=O)C(C)(C)NC(=O)[C@H](Cc4c[nH]c5ccccc45)NC(=O)[C@H](CO)NC(=O)C(C)(C)NC(=O)[C@H]([C@@H](C)c4c[nH]c5cccc(F)c45)NC(=O)[C@@H]4C[C@H](O)CN4C(=O)CNC(=O)[C@H](Cc4ccc(C(=O)O)cc4)NC(=O)[C@H](Cc4ccncc4)NC3=O)cc2)CC1` [Example 196] (cyclo([Phe(4-(4-Ac-piperazinyl))][4Pal][Phe(4-COOH)]G[cisHyp][Trp(βS-Me,4-F)][Aib]SW[Aib][Ala(pyrimidin-5-yl)]Q[Dab]G[dPro(4R-Bzl(4-F))])), the pIC50 is 10.42.

Take `C[C@@H](c1c[nH]c2cccc(F)c12)[C@@H]1NC(=O)[C@@H]2C[C@H](O)CN2C(=O)CNC(=O)[C@H](Cc2ccc(C(=O)O)cc2)NC(=O)[C@H](Cc2ccncc2)NC(=O)[C@H](Cc2ccc(-c3ncc(C(=O)O)cn3)cc2)NC(=O)[C@H]2C[C@@H](Cc3ccncc3)CN2C(=O)CNC(=O)[C@H](CCN)NC(=O)[C@H](CCC(N)=O)NC(=O)[C@H](Cc2cncnc2)NC(=O)C(C)(C)NC(=O)[C@H](Cc2c[nH]c3ccccc23)NC(=O)[C@H](CO)NC(=O)C(C)(C)NC1=O` [Example 197] (cyclo([Phe(4-(5-CO2H-2-pyrimidyl))][4Pal][Phe(4-COOH)]G[cisHyp][Trp(βS-Me,4-F)][Aib]SW[Aib][Ala(pyrimidin-5-yl)]Q[Dab]G[dPro(4R-(4-pyridylmethyl))])): the pIC50 was 10.44.

In the case of `C[C@@H](c1c[nH]c2cccc(F)c12)[C@@H]1NC(=O)[C@@H]2C[C@H](F)CN2C(=O)CNC(=O)[C@H](Cc2ccc(C(=O)O)cc2)NC(=O)[C@H](CC23CC(C2)C3)NC(=O)[C@H](Cc2ccc(-c3ncc(C(=O)O)cn3)cc2)NC(=O)[C@H]2C[C@@H](Cc3ccncc3)CN2C(=O)CNC(=O)[C@H](CCN)NC(=O)[C@H](CCC(N)=O)NC(=O)[C@H](Cc2cncnc2)NC(=O)C(C)(C)NC(=O)[C@H](Cc2c[nH]c3ccccc23)NC(=O)[C@H](CO)NC(=O)C(C)(C)NC1=O` [Example 198] (cyclo([Phe(4-(5-CO2H-2-pyrimidyl))][Ala(1-bicyclo(1.1.1)pentyl)][Phe(4-COOH)]G[Pro(cis-4-F)][Trp(βS-Me,4-F)][Aib]SW[Aib][Ala(pyrimidin-5-yl)]Q[Dab]G[dPro(4R-(4-pyridylmethyl))])), the pIC50 is 10.62.

`C[C@@H](c1c[nH]c2cccc(F)c12)[C@@H]1NC(=O)[C@@H]2C[C@H](O)CN2C(=O)CNC(=O)[C@H](Cc2ccc(C(=O)O)cc2)NC(=O)[C@H](Cc2ccncc2)NC(=O)[C@H](Cc2ccc(-c3ccc(C(=O)O)cc3)cc2)NC(=O)[C@H]2C[C@@H](Cc3ccncc3)CN2C(=O)CNC(=O)[C@H](CO)NC(=O)[C@H](CCC(N)=O)NC(=O)[C@H](CC2CCOCC2)NC(=O)[C@](C)(CC(=O)O)NC(=O)[C@H](Cc2c[nH]c3ccccc23)NC(=O)[C@H](CO)NC(=O)C(C)(C)NC1=O` [Example 199] (cyclo([Bip(4'-COOH)][4Pal][Phe(4-COOH)]G[cisHyp][Trp(βS-Me,4-F)][Aib]SW[αMeD][Ala(4-THP)]QSG[dPro(4R-(4-pyridylmethyl))])): the pIC50 was 10.49.
